Article PMC4514675, “Novel Apo E-Derived ABCA1 Agonist Peptide (CS-6253) Promotes Reverse Cholesterol Transport and Induces Formation of preβ-1 HDL In Vitro” (PLoS ONE, 2015)
Several values for one entry are separate records, joined by “and”; a condition that tells them apart may be missing. Equal values may be shown once.

What was measured:
BHK-mock cells = assay: Cholesterol efflux from control cells (unstimulated BHK-ABCA1, BHK-mock), media; type: cell-based, hamster
From the text: (§1) BHK cells stably transfected with an ABCA1 or ABCG1 expression vector that is mifepristone inducible and cells transfected with the same vector lacking the ABCA1 cDNA insert (mutant or mock-transfected) were generously provided by the late Dr. John F. Oram from the Department of Medicine, University of Washington, and were characterized and cultured as previously described. […] Mouse-derived peritoneal macrophages J774 were purchased from American Tissue Culture Collection (ATCC TIB-67, Cederlane, Burlington, Canada). For induction of ABCA1, BHK cells were incubated for 18–20 h with 10 nM mifepristone. […]
Fig 2 Effect of CS-6253 treatment on cholesterol efflux. […] Cholesterol efflux from either ABCA1 cells or control cells to apo A-I (closed circles), and CS-6253 (closed triangles) was determined at the indicated time points. […] ABCA1 was detected from THP-1 foam cells lysis at 4°C with lysis buffer containing 0.5% n-dodecylmaltoside in the presence of a protease inhibitor mixture followed by low speed centrifugation to remove cell debris. Protein concentration was determined by standard assay (Bio-Rad). […] After electrophoresis, ABCA1 was detected by an anti-ABCA1 antibody. […] 3[H]-FC and 3[H]-CE were separated by TLC and located by exposure to iodine vapor, and were scraped off into liquid scintillating vials and assayed for radioactivity. […]

ABCA1 = target: T1, ABCA1 (Mus musculus, UniProt P41233); assay: ABCA1-mediated cholesterol efflux from cAMP-treated J774 macrophages; type: cell-based; conditions: mean ± SD
T1 construct: host or cells: J774 mouse macrophages stimulated with Cpt-cAMP
T1 sequence (P41233 whole entry): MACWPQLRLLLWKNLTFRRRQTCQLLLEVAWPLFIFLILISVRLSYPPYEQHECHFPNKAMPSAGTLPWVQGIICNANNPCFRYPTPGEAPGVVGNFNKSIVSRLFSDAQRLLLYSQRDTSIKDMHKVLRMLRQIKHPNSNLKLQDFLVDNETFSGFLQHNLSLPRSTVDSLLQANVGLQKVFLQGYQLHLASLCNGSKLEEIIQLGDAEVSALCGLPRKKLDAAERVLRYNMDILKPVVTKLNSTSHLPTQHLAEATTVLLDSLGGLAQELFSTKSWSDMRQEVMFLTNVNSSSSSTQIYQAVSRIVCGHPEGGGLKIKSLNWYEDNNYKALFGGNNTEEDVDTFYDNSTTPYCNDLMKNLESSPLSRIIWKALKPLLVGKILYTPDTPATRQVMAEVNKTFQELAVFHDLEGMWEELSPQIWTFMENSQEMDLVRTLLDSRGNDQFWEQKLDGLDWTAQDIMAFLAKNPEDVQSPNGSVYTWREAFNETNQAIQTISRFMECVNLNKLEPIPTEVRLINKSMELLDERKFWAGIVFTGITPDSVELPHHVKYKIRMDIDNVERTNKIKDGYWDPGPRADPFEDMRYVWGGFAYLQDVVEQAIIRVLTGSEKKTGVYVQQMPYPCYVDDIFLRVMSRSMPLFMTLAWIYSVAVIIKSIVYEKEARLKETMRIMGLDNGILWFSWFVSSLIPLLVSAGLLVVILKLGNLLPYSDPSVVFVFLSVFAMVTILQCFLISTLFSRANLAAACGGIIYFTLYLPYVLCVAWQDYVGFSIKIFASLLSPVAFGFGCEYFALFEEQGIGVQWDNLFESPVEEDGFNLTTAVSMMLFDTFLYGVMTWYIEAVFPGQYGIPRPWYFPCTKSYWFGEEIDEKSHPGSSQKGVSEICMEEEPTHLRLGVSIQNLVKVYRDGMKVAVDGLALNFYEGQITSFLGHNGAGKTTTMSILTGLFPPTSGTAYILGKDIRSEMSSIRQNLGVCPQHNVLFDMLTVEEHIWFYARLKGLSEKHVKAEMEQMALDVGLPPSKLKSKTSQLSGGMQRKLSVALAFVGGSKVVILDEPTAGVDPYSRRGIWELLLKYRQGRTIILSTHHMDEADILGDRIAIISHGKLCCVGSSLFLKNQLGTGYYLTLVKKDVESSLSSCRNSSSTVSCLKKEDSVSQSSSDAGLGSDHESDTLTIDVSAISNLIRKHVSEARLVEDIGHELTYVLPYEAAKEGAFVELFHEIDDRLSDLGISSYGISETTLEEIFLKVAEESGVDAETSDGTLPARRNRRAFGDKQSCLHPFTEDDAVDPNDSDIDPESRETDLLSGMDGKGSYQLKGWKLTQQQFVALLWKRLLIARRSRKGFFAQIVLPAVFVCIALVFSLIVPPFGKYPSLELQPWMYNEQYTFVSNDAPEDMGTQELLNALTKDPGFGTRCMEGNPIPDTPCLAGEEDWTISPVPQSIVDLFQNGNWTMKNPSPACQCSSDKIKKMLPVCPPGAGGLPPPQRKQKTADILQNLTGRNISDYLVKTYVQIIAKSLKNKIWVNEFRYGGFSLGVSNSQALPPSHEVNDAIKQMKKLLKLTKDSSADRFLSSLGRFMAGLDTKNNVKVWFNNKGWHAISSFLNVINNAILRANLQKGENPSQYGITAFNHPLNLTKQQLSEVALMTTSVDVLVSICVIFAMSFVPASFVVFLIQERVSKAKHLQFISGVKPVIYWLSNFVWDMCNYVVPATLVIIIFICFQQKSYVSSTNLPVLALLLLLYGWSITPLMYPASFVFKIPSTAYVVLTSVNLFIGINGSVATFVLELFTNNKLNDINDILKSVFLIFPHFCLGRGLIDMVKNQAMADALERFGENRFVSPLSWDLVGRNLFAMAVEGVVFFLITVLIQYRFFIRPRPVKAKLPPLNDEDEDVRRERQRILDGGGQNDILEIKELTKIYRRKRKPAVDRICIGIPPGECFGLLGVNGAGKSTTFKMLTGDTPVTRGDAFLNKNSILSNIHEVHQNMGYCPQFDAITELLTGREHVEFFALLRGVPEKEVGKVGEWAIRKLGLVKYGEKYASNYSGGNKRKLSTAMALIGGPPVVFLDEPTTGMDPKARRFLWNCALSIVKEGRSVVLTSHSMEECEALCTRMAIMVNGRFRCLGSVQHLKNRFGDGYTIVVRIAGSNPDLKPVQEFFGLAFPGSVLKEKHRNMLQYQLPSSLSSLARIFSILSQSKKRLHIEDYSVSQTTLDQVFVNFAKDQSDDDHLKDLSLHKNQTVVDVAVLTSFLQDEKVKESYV
From the text: as §1, with “mifepristone. J774 macrophages were stimulated with 0.3 mM Cpt-cAMP 8-(4-Chlorophenylthio)-cyclic adenosine monophosphate (Sigma).” for “mifepristone.”
All cell culture incubations were performed at 37 °C in a humidified 5% CO2. […] Media were collected, centrifuged at 3.000 g for 5min to remove cell debris, and counted for radioactivity. […] Further, 0.2 ml cells lysates were mixed with scintillation liquid and counted for radioactivity. […] Cholesterol efflux was calculated according to the following formula as the percentage of ^3H-cpm medium/(^3H-cpm medium + ^3H-cpm cells) x 100%. Efflux efficiency (Km) was calculated using the Michaelis-Menten equation (Graph-Pad Prism6 software) respectively (S1, S8 and S9 Figs.)

[1] = test system: BHK-ABCA1 plasma membrane microdomains; assay: Cholesterol and phospholipid desorption from raft and non-raft domains of BHK-ABCA1 cells; type: cell-based, hamster; conditions: 45 min
Description: Lipid labeling was performed as described previously with minor modifications. Briefly, BHK-cells were labeled with either 5 μCi/ml ^3[H] choline (Perkin-Elmer) for 48 h or 3 μCi/ml ^3[H] cholesterol (Perkin-Elmer) for 24 h, and then stimulated as described above. […] For each fraction, lipids were extracted by Folch and ^3[H]choline-labeled PtdCho, and SM were separated by TLC in the solvent system chloroform-methanol-water (65:35:4; v/v/v), and counted.
Supplementary file pone.0131997.s008.tif: S7 Fig CS-6253 desorbs phospholipids from raft and nonraft domains. […] After lipid extraction, ^3[H]cholesterol in each fraction was assessed for radioactivity. Radioactivity appearing in fractions corresponding to raft (1–5) and nonraft (6–10) material was pooled, and desorption of ^3[H]cholesterol and ^3[H]choline, from raft versus nonraft in the presence of apo A-I or CS-6253 was expressed as a percentage of control (100%, in the absence of acceptor) (S4 to S7 inset). […]
Sucrose density gradient fractionation was performed by ultracentrifugation (1,2). […] Ten fractions of 1ml were collected from top to bottom and analyzed for radioactivity, and lipid content ^3[H]-FC and ^3[H]-choline. […]

## apolipoprotein A-I [apo A-I]
BHK-mock cells; BHK mock and unstimulated BHK-ABCA1 cells
  maximum cholesterol efflux by diffusion: 0.75%
BHK-mock cells; unstimulated BHK-ABCA1 and BHK-mock, CS-6253 30 μg/ml, apo A-I 10 μg/ml
  cholesterol efflux from control cells: no significant cholesterol efflux
ABCA1; 6 h
  Km, cholesterol efflux: 3.82±1.81 μg/ml and 0.15±0.05 μM
ABCA1
  Vmax, cholesterol efflux: 6.90±1.06 % efflux/6h
[1]
  cholesterol desorption from rafts and non-rafts: 25%
